Test results as given in patent US20030176366A1, “Topical application of ascorbic acid compounds for augmenting the synthesis of epidermal ceramides” (SOCIETE L'OREAL S.A., priority 2000, published 2003).

How the values were obtained:
[1] = tested on: reconstructed epidermes; assay: Lipid profile of treated reconstructed epidermes (densitometric analysis); format: cell-based; details: applied for 6 days at 1.10×10^−4 M; relative to the control and relative to ascorbic acid; not quantified
Method: The test described in Example 1 was repeated using various ascorbic acid derivatives, applied for 6 days at 1.10×10^-4 M on reconstructed […] subjected to 7 days of culture. The quantity of epidermal ceramides produced was, however, not quantified. Instead, a densitometric analysis was carried out using a CAMAG TLC® model Scanner 3 densitometric reader. The lipid profile of the treated […] determined, in which: The lipid content was determined of the sample of reconstructed epidermis either untreated (control), or treated with ascorbic acid (vitamin C) or with one of the ascorbic acid derivatives A to G indicated above.

[2] = tested on: skin equivalent marketed by EPISKIN; assay: Effect on the synthesis of epidermal lipids in EPISKIN skin equivalent (HPTLC, densitometry); format: cell-based; details: for percentage increase in Ceramides 4-7 relative to the untreated control / percentage increase in cer. 6-7 relative to the untreated control: treated for five days
Method: Ascorbyl glucoside and ascorbic acid itself were tested on a skin equivalent marketed by EPISKIN (Lyon, France), after culturing the latter for 7 days. The culture and assay media were those contained in the kit marketed by the supplier. Each compound was tested at 5 μg/ml and 0.05 μg/ml (as vitamin C equivalent) in the culture medium. The reconstructed epidermes were treated for five days, the culture medium being replaced every 48 hours. The control consisted of an identical epidermis equivalent which was subjected to topical application of culture medium without the compound to be tested.
At the end of the incubation period, the epidermis equivalent was detached from its collagenic support. The preparation of the lipids of the epidermis equivalent and their analysis by HPTLC or high-performance thin-layer chromatography were carried out according to the technique and with the buffers described by M. Ponec (1991, Adv. Lipid Res., 24:83-117). At the end of the migration, densitometric analysis was carried out using a CAMAG TLC model Scanner 3 densitometric reader.
The results obtained are reported in the Table below as a percentage increase in ceramides 4, 5, 6 and 7 relative to the untreated control.

[3] = 0.05 μg/ml as vitamin C equiv. in culture medium
[4] = 5 μg/ml as vitamin C equiv. in culture medium

## O=C(/C=C/c1ccccc1)OC1=C(O)[C@@H]([C@@H](O)CO)OC1=O [Compound B, ascorbyl 2-cinnamate]
[1]
  polar ceramide content of reconstructed epidermes / effect on epidermal lipogenesis: significantly increases the polar ceramide content

## CCCCCCCCCCCCCCCC(=O)OC1=C(O)C(C2COC(C)(C)O2)OC1=O (stereo not shown) [Compound D, (5,6-isopropylidene)ascorbyl 2-hexadecanoate]
[1]
  polar ceramide content of reconstructed epidermes / effect on epidermal lipogenesis: significantly increases the polar ceramide content

## COc1cc(/C=C/C(=O)OC2=C(O)[C@@H]([C@@H](O)CO)OC2=O)ccc1O [Compound C, ascorbyl 2-ferulate]
[1]
  polar ceramide content of reconstructed epidermes / effect on epidermal lipogenesis: significantly increases the polar ceramide content

## O=C1O[C@H]([C@@H](O)CO)C(O)=C1O[C@H]1O[C@H](CO)[C@@H](O)[C@H](O)[C@H]1O [ascorbyl glucoside, 2-O-α-D-glucopyranosyl of L-ascorbic acid]
[2]; [3]
  percentage increase in Ceramides 4-7 relative to the untreated control: +11%
  percentage increase in cer. 6-7 relative to the untreated control: +65%
[2]; [4]
  percentage increase in Ceramides 4-7 relative to the untreated control: +40%
  percentage increase in cer. 6-7 relative to the untreated control: +59%
[2]; tested at the same concentration as ascorbic acid
  increase in the synthesis of the epidermal lipids (in particular of the most polar ceramides) compared with ascorbic acid: much higher for ascorbyl glucoside than for ascorbic acid

## O=C1O[C@H]([C@@H](O)CO)C(O)=C1O [ascorbic acid]
[2]; [3]
  percentage increase in Ceramides 4-7 relative to the untreated control: +7%
  percentage increase in cer. 6-7 relative to the untreated control: +15%
[2]; [4]
  percentage increase in Ceramides 4-7 relative to the untreated control: +21%
  percentage increase in cer. 6-7 relative to the untreated control: −17%

## COC(=O)COC1=C(OCC(=O)OC)C(C(O)CO)OC1=O (stereo not shown) [Compound E, ascorbyl 2,3-bis(methoxycarbonyl-methoxy) ether, reference compound]
[1]
  polar ceramide content of reconstructed epidermes / effect on epidermal lipogenesis: no significant effect on the epidermal lipogenesis

## CC1(C)OCC(C2OC(=O)C(O[C@H]3O[C@H](CO)[C@@H](O)[C@H](O)[C@H]3O)=C2O)O1 (stereo partly drawn) [Compound A, 2-O-α-D-glucopyranosyl of (5,6-isopropylidene)ascorbic acid]
[1]
  polar ceramide content of reconstructed epidermes / effect on epidermal lipogenesis: significantly increases the polar ceramide content

## O=C1O[C@H]([C@@H](O)CO)C(O)=C1OS(=O)(=O)[O-].O=C1O[C@H]([C@@H](O)CO)C(O)=C1OS(=O)(=O)[O-].[Ba+2] [Compound F, barium 2-ascorbyl sulfate, reference compound]
[1]
  polar ceramide content of reconstructed epidermes / effect on epidermal lipogenesis: no significant effect on the epidermal lipogenesis

## CC1(C)OCC(C2OC(=O)C(OC(=O)c3ccccc3)=C2O)O1 (stereo not shown) [Compound G, (5,6-isopropylidene)ascorbyl 2-benzoate]
[1]
  polar ceramide content of reconstructed epidermes / effect on epidermal lipogenesis: significantly increases the polar ceramide content
